Test: Effect of temperature (and pH) on the stability of the solution (purity)
Assay type: physicochemical
Details: 7% solution in water

CCN(CC)CCOC(=O)C(C)c1ccc2oc(-c3ccc(Cl)cc3)nc2c1.Cl (centres unmarked)
Purity(%) at day 0 (pH 1.0, day 0): 98.1 ± 0.3% | Purity(%) at day 21 (5° C.) (pH 1.0, day 21, 5° C.): 92.9 ± 0.3% | Purity(%) at day 21 (25° C.) (pH 1.0, day 21, 25° C.): 69.2 ± 0.3% | Purity(%) at day 21 (40° C.) (pH 1.0, day 21, 40° C.): 11.3 ± 0.3% | Purity (%) at day 21 (60° C.) (pH 1.0, day 21, 60° C.): 0% | Purity(%) at day 0 (pH 2.0, day 0): 98.2 ± 0.3% | Purity(%) at day 21 (5° C.) (pH 2.0, day 21, 5° C.): 96.1 ± 0.3% | Purity(%) at day 21 (25° C.) (pH 2.0, day 21, 25° C.): 83.0 ± 0.3% | Purity(%) at day 21 (40° C.) (pH 2.0, day 21, 40° C.): 20.5 ± 0.3% | Purity (%) at day 21 (60° C.) (pH 2.0, day 21, 60° C.): 0% | Purity(%) at day 0 (pH 3.0, day 0): 98.3 ± 0.2% | Purity(%) at day 21 (5° C.) (pH 3.0, day 21, 5° C.): 97.5 ± 0.2% | Purity(%) at day 21 (25° C.) (pH 3.0, day 21, 25° C.): 94.0 ± 0.3% | Purity(%) at day 21 (40° C.) (pH 3.0, day 21, 40° C.): 45.3 ± 0.2% | Purity (%) at day 21 (60° C.) (pH 3.0, day 21, 60° C.): 0% | Purity(%) at day 0 (pH 3.7, day 0): 98.5 ± 0.1% | Purity(%) at day 21 (5° C.) (pH 3.7, day 21, 5° C.): 97.6 ± 0.2% | Purity(%) at day 21 (25° C.) (pH 3.7, day 21, 25° C.): 96.6 ± 0.2% | Purity(%) at day 21 (40° C.) (pH 3.7, day 21, 40° C.): 51.9 ± 0.2% | Purity (%) at day 21 (60° C.) (pH 3.7, day 21, 60° C.): 11.3 ± 0.3% | Purity(%) at day 0 (pH 4.0, day 0): 98.6 ± 0.1% | Purity(%) at day 21 (5° C.) (pH 4.0, day 21, 5° C.): 98.0 ± 0.1% | Purity(%) at day 21 (25° C.) (pH 4.0, day 21, 25° C.): 96.7 ± 0.2% | Purity(%) at day 21 (40° C.) (pH 4.0, day 21, 40° C.): 62.7 ± 0.2% | Purity (%) at day 21 (60° C.) (pH 4.0, day 21, 60° C.): 18.6 ± 0.2% | Purity(%) at day 0 (pH 4.3, day 0): 98.6 ± 0.1% | Purity(%) at day 21 (5° C.) (pH 4.3, day 21, 5° C.): 98.0 ± 0.1% | Purity(%) at day 21 (25° C.) (pH 4.3, day 21, 25° C.): 96.7 ± 0.1% | Purity(%) at day 21 (40° C.) (pH 4.3, day 21, 40° C.): 63.1 ± 0.2% | Purity (%) at day 21 (60° C.) (pH 4.3, day 21, 60° C.): 17.7 ± 0.2% | Purity(%) at day 0 (pH 4.6, day 0): 98.6 ± 0.1% | Purity(%) at day 21 (5° C.) (pH 4.6, day 21, 5° C.): 98.0 ± 0.1% | Purity(%) at day 21 (25° C.) (pH 4.6, day 21, 25° C.): 96.6 ± 0.1% | Purity(%) at day 21 (40° C.) (pH 4.6, day 21, 40° C.): 50.3 ± 0.2% | Purity (%) at day 21 (60° C.) (pH 4.6, day 21, 60° C.): 12.3 ± 0.2% | Purity(%) at day 0 (pH 5.0, day 0): 98.4 ± 0.2% | Purity(%) at day 21 (5° C.) (pH 5.0, day 21, 5° C.): 97.1 ± 0.2% | Purity(%) at day 21 (25° C.) (pH 5.0, day 21, 25° C.): 92.9 ± 0.2% | Purity(%) at day 21 (40° C.) (pH 5.0, day 21, 40° C.): 39.8 ± 0.2% | Purity (%) at day 21 (60° C.) (pH 5.0, day 21, 60° C.): 2.9 ± 0.2% | Purity(%) at day 0 (pH 6.0, day 0): 98.2 ± 0.2% | Purity(%) at day 21 (5° C.) (pH 6.0, day 21, 5° C.): 94.8 ± 0.2% | Purity(%) at day 21 (25° C.) (pH 6.0, day 21, 25° C.): 86.8 ± 0.2% | Purity(%) at day 21 (40° C.) (pH 6.0, day 21, 40° C.): 20.6 ± 0.3% | Purity (%) at day 21 (60° C.) (pH 6.0, day 21, 60° C.): 0% | Purity(%) at day 0 (pH 7.0, day 0): 98.0 ± 0.2% | Purity(%) at day 21 (5° C.) (pH 7.0, day 21, 5° C.): 89.1 ± 0.3% | Purity(%) at day 21 (25° C.) (pH 7.0, day 21, 25° C.): 60.9 ± 0.2% | Purity(%) at day 21 (40° C.) (pH 7.0, day 21, 40° C.): 7.4 ± 0.3% | Purity (%) at day 21 (60° C.) (pH 7.0, day 21, 60° C.): 0% | Purity(%) at day 0 (pH 8.0, day 0): 97.7 ± 0.3% | Purity(%) at day 21 (5° C.) (pH 8.0, day 21, 5° C.): 78.7 ± 0.3% | Purity(%) at day 21 (25° C.) (pH 8.0, day 21, 25° C.): 47.9 ± 0.3% | Purity(%) at day 21 (40° C.) (pH 8.0, day 21, 40° C.): 0% | Purity (%) at day 21 (60° C.) (pH 8.0, day 21, 60° C.): 0%

CCN(CC)CCOC(=O)COc1nn(Cc2ccccc2)c2ccccc12.Cl
Purity(%) at day 0 (pH 1.0, day 0): 97.5 ± 0.3% | Purity(%) at day 21 (5° C.) (pH 1.0, day 21, 5° C.): 89.9 ± 0.3% | Purity(%) at day 21 (25° C.) (pH 1.0, day 21, 25° C.): 63.5 ± 0.3% | Purity(%) at day 21 (40° C.) (pH 1.0, day 21, 40° C.): 9.1 ± 0.3% | Purity (%) at day 21 (60° C.) (pH 1.0, day 21, 60° C.): 0% | Purity(%) at day 0 (pH 2.0, day 0): 97.7 ± 0.2% | Purity(%) at day 21 (5° C.) (pH 2.0, day 21, 5° C.): 93.0 ± 0.2% | Purity(%) at day 21 (25° C.) (pH 2.0, day 21, 25° C.): 77.8 ± 0.3% | Purity(%) at day 21 (40° C.) (pH 2.0, day 21, 40° C.): 19.6 ± 0.3% | Purity (%) at day 21 (60° C.) (pH 2.0, day 21, 60° C.): 0% | Purity(%) at day 0 (pH 3.0, day 0): 97.8 ± 0.2% | Purity(%) at day 21 (5° C.) (pH 3.0, day 21, 5° C.): 96.8 ± 0.2% | Purity(%) at day 21 (25° C.) (pH 3.0, day 21, 25° C.): 91.3 ± 0.2% | Purity(%) at day 21 (40° C.) (pH 3.0, day 21, 40° C.): 40.4 ± 0.2% | Purity (%) at day 21 (60° C.) (pH 3.0, day 21, 60° C.): 0% | Purity(%) at day 0 (pH 3.7, day 0): 97.9 ± 0.1% | Purity(%) at day 21 (5° C.) (pH 3.7, day 21, 5° C.): 97.5 ± 0.1% | Purity(%) at day 21 (25° C.) (pH 3.7, day 21, 25° C.): 95.6 ± 0.2% | Purity(%) at day 21 (40° C.) (pH 3.7, day 21, 40° C.): 55.6 ± 0.2% | Purity (%) at day 21 (60° C.) (pH 3.7, day 21, 60° C.): 8.5 ± 0.2% | Purity(%) at day 0 (pH 4.0, day 0): 98.1 ± 0.1% | Purity(%) at day 21 (5° C.) (pH 4.0, day 21, 5° C.): 97.6 ± 0.1% | Purity(%) at day 21 (25° C.) (pH 4.0, day 21, 25° C.): 95.7 ± 0.1% | Purity(%) at day 21 (40° C.) (pH 4.0, day 21, 40° C.): 57.2 ± 0.2% | Purity (%) at day 21 (60° C.) (pH 4.0, day 21, 60° C.): 23.2 ± 0.2% | Purity(%) at day 0 (pH 4.3, day 0): 98.1 ± 0.1% | Purity(%) at day 21 (5° C.) (pH 4.3, day 21, 5° C.): 97.7 ± 0.2% | Purity(%) at day 21 (25° C.) (pH 4.3, day 21, 25° C.): 95.5 ± 0.1% | Purity(%) at day 21 (40° C.) (pH 4.3, day 21, 40° C.): 58.8 ± 0.3% | Purity (%) at day 21 (60° C.) (pH 4.3, day 21, 60° C.): 25.8 ± 0.2% | Purity(%) at day 0 (pH 4.6, day 0): 97.9 ± 0.1% | Purity(%) at day 21 (5° C.) (pH 4.6, day 21, 5° C.): 97.6 ± 0.1% | Purity(%) at day 21 (25° C.) (pH 4.6, day 21, 25° C.): 95.1 ± 0.1% | Purity(%) at day 21 (40° C.) (pH 4.6, day 21, 40° C.): 54.7 ± 0.2% | Purity (%) at day 21 (60° C.) (pH 4.6, day 21, 60° C.): 16.5 ± 0.2% | Purity(%) at day 0 (pH 5.0, day 0): 97.8 ± 0.2% | Purity(%) at day 21 (5° C.) (pH 5.0, day 21, 5° C.): 95.9 ± 0.2% | Purity(%) at day 21 (25° C.) (pH 5.0, day 21, 25° C.): 91.8 ± 0.2% | Purity(%) at day 21 (40° C.) (pH 5.0, day 21, 40° C.): 36.1 ± 0.2% | Purity (%) at day 21 (60° C.) (pH 5.0, day 21, 60° C.): 4.2 ± 0.2% | Purity(%) at day 0 (pH 6.0, day 0): 97.6 ± 0.3% | Purity(%) at day 21 (5° C.) (pH 6.0, day 21, 5° C.): 93.7 ± 0.2% | Purity(%) at day 21 (25° C.) (pH 6.0, day 21, 25° C.): 78.9 ± 0.2% | Purity(%) at day 21 (40° C.) (pH 6.0, day 21, 40° C.): 18.5 ± 0.2% | Purity (%) at day 21 (60° C.) (pH 6.0, day 21, 60° C.): 0% | Purity(%) at day 0 (pH 7.0, day 0): 97.5 ± 0.3% | Purity(%) at day 21 (5° C.) (pH 7.0, day 21, 5° C.): 89.3 ± 0.2% | Purity(%) at day 21 (25° C.) (pH 7.0, day 21, 25° C.): 59.7 ± 0.3% | Purity(%) at day 21 (40° C.) (pH 7.0, day 21, 40° C.): 7.1 ± 0.3% | Purity (%) at day 21 (60° C.) (pH 7.0, day 21, 60° C.): 0% | Purity(%) at day 0 (pH 8.0, day 0): 97.4 ± 0.4% | Purity(%) at day 21 (5° C.) (pH 8.0, day 21, 5° C.): 77.5 ± 0.3% | Purity(%) at day 21 (25° C.) (pH 8.0, day 21, 25° C.): 39.8 ± 0.3% | Purity(%) at day 21 (40° C.) (pH 8.0, day 21, 40° C.): 0% | Purity (%) at day 21 (60° C.) (pH 8.0, day 21, 60° C.): 0%
